Read-outs that look alike come from different tables or passages of the source.
Tests used:
Format in all cases: cell-based, human
MDA-MB-435 = system: MDA-MB-435
Description: (§1) (aR)-6, (aS)-6, (aS)-iso -6, and (aR)-iso -6 were submitted to the 60 Cell Screen panel and evaluated at 5 doses (100 μM, 10 μM, 1 μM, 0.1 μM, and 0.01 μM). […] The complete report from this submission is available at the publisher’s Web site as a separate Supporting Information file. For COMPARE analysis, TGI levels of response for (aR)-DM-MTC (6) and (aS)-iso-DM-MTC were compared to those of several established tubulin inhibitors previously tested in the NCI-60 screen.

K-562 = system: K-562
Description: as §1

MOLT-4 = system: MOLT-4
Description: as §1

OVCAR-4 = system: OVCAR-4
Description: as §1

HCT-15 = system: HCT-15
Description: as §1

EKVX = system: EKVX
Description: as §1

NCI/ADR-RES = system: NCI/ADR-RES
Description: as §1

OVCAR-8 = system: OVCAR-8
Description: as §1

HS 578T = system: HS 578T
Description: as §1

T-47D = system: T-47D
Description: as §1

A549/ATCC = system: A549/ATCC
Description: as §1

HCT-116 = system: HCT-116
Description: as §1

NCI-H460 = system: NCI-H460
Description: as §1

A498 = system: A498
Description: as §1

SF-295 = system: SF-295
Description: as §1

NCI-H23 = system: NCI-H23
Description: as §1

SK-OV-3 = system: SK-OV-3
Description: as §1

SF-539 = system: SF-539
Description: as §1

SK-MEL-28 = system: SK-MEL-28
Description: as §1

HOP-62 = system: HOP-62
Description: as §1

MDA-MB-231/ATCC = system: MDA-MB-231/ATCC
Description: as §1

HL-60(TB) = system: HL-60(TB)
Description: as §1

SNB-19 = system: SNB-19
Description: as §1

SK-MEL-2 = system: SK-MEL-2
Description: as §1

M14 = experiment: Cell-growth inhibition (CellTiter); conditions: Homo sapiens, M14, 72 h, M14, 3 days; read-out: Cell Growth Inhibition GI50 ± SE
Description: (§2) Inhibition of cell growth was determined by using standard procedures. Cell lines were obtained from the NCI anticancer drug screen and maintained in DMEM medium supplemented with 10% fetal bovine serum. Growing cells were exposed to serial dilutions of each compound for 3 days. Cell growth was determined with CellTiter Assay Reagent (Promega), and growth parameters, including inhibition of growth, were measured by using the methods specified by the manufacturer.

A549 = experiment: Cell-growth inhibition (CellTiter); conditions: Homo sapiens, A549, 72 h, A549, 3 days; read-out: Cell Growth Inhibition GI50 ± SE
Description: as §2

PC3 = experiment: Cell-growth inhibition (CellTiter); conditions: Homo sapiens, PC-3, 72 h, PC3, 3 days; read-out: Cell Growth Inhibition GI50 ± SE
Description: as §2

With `COc1cc(C)c(-c2ccc(=O)c(OC)cc2C)c(OC)c1OC` (single isomer, unassigned) [(aS)-iso-6] the Log10GI50 (MDA-MB-435) was -5.46 Molar, the Log10LC50 (MDA-MB-435) was > -4.00 Molar and the Log10TGI (MDA-MB-435) was -4.81 Molar. The GI50 (MDA-MB-435; Homo sapiens) was 3.47 µM, the Log10GI50 (MDA-MB-435; […]) was -5.46 Molar and the Log10GI50 (K-562) was -5.30 Molar. For the same compound, the Log10LC50 (K-562) was > -4.00 Molar, the Log10TGI (K-562) was > -4.00 Molar and the GI50 (K-562; Homo sapiens, K562) was 5.01 µM. The Log10GI50 (K-562; […]) was -5.3 Molar, the Log10GI50 (MOLT-4) was -4.44 Molar and the Log10LC50 (MOLT-4) was > -4.00 Molar. For the same compound, the Log10TGI (MOLT-4) was > -4.00 Molar, the GI50 (MOLT-4; Homo sapiens) was 36.3 µM and the Log10GI50 (MOLT-4; […]) was -4.44 Molar. For the same compound, the Log10GI50 (OVCAR-4) was -4.04 Molar, the Log10LC50 (OVCAR-4) was > -4.00 Molar and the Log10TGI (OVCAR-4) was > -4.00 Molar. It also gave a GI50 (OVCAR-4; Homo sapiens) of 91.2 µM, a Log10GI50 (OVCAR-4; […]) of -4.04 Molar and a Log10GI50 (HCT-15) of -4.89 Molar. For the same compound, the Log10LC50 (HCT-15) was > -4.00 Molar, the Log10TGI (HCT-15) was > -4.00 Molar and the GI50 (HCT-15; Homo sapiens) was 12.9 µM. The Log10GI50 (HCT-15; […]) was -4.89 Molar, the Log10GI50 (EKVX) was -4.18 Molar and the Log10LC50 (EKVX) was > -4.00 Molar. The Log10TGI (EKVX) was > -4.00 Molar, the GI50 (EKVX; Homo sapiens) was 66.1 µM and the Log10GI50 (EKVX; […]) was -4.18 Molar. For the same compound, the Log10GI50 (NCI/ADR-RES) was -4.55 Molar, the Log10LC50 (NCI/ADR-RES) was > -4.00 Molar and the Log10TGI (NCI/ADR-RES) was > -4.00 Molar. For the same compound, the GI50 (NCI/ADR-RES; Homo sapiens) was 28.2 µM, the Log10GI50 (NCI/ADR-RES; […]) was -4.55 Molar and the Log10GI50 (OVCAR-8) was -4.45 Molar. For the same compound, the Log10LC50 (OVCAR-8) was > -4.00 Molar, the Log10TGI (OVCAR-8) was > -4.00 Molar and the GI50 (OVCAR-8; Homo sapiens) was 35.5 µM. For the same compound, the Log10GI50 (OVCAR-8; […]) was -4.45 Molar, the Log10GI50 (HS 578T) was -4.80 Molar and the Log10LC50 (HS 578T) was > -4.00 Molar. For the same compound, the Log10TGI (HS 578T) was -4.19 Molar, the GI50 (HS 578T; Homo sapiens) was 15.8 µM and the Log10GI50 (HS 578T; […]) was -4.8 Molar. The Log10GI50 (T-47D) was -4.58 Molar, the Log10LC50 (T-47D) was > -4.00 Molar and the Log10TGI (T-47D) was > -4.00 Molar. It also gave a GI50 (T-47D; Homo sapiens, T47D) of 26.3 µM, a Log10GI50 (T-47D; […]) of -4.58 Molar and a Log10GI50 (A549/ATCC) of -4.45 Molar. For the same compound, the Log10LC50 (A549/ATCC) was > -4.00 Molar, the Log10TGI (A549/ATCC) was > -4.00 Molar and the GI50 (A549/ATCC; Homo sapiens) was 35.5 µM. The Log10GI50 (A549/ATCC; […]) was -4.45 Molar, the Log10GI50 (HCT-116) was -4.60 Molar and the Log10LC50 (HCT-116) was > -4.00 Molar. The Log10TGI (HCT-116) was > -4.00 Molar, the GI50 (HCT-116; Homo sapiens) was 25.1 µM and the Log10GI50 (HCT-116; […]) was -4.6 Molar. For the same compound, the Log10GI50 (NCI-H460) was -4.50 Molar, the Log10LC50 (NCI-H460) was > -4.00 Molar and the Log10TGI (NCI-H460) was > -4.00 Molar. For the same compound, the GI50 (NCI-H460; Homo sapiens) was 31.6 µM, the Log10GI50 (NCI-H460; […]) was -4.5 Molar and the Log10GI50 (A498) was -4.85 Molar. For the same compound, the Log10LC50 (A498) was > -4.00 Molar, the Log10TGI (A498) was -4.28 Molar and the GI50 (A498; Homo sapiens) was 14.1 µM. For the same compound, the Log10GI50 (A498; […]) was -4.85 Molar, the Log10GI50 (SF-295) was -4.64 Molar and the Log10LC50 (SF-295) was > -4.00 Molar. The Log10TGI (SF-295) was > -4.00 Molar, the GI50 (SF-295; Homo sapiens) was 25.7 µM and the Log10GI50 (SF-295; […]) was -4.59 Molar. The Log10GI50 (NCI-H23) was -4.33 Molar, the Log10LC50 (NCI-H23) was > -4.00 Molar and the Log10TGI (NCI-H23) was > -4.00 Molar. For the same compound, the GI50 (NCI-H23; Homo sapiens) was 46.8 µM, the Log10GI50 (NCI-H23; […]) was -4.33 Molar and the Log10GI50 (SK-OV-3) was -4.57 Molar. The Log10LC50 (SK-OV-3) was > -4.00 Molar, the Log10TGI (SK-OV-3) was > -4.00 Molar and the GI50 (SK-OV-3; Homo sapiens) was 26.9 µM. The Log10GI50 (SK-OV-3; […]) was -4.57 Molar, the Log10GI50 (SF-539) was -4.59 Molar and the Log10LC50 (SF-539) was > -4.00 Molar. The Log10TGI (SF-539) was > -4.00 Molar, the GI50 (SF-539; Homo sapiens) was 29.5 µM and the Log10GI50 (SF-539; […]) was -4.53 Molar. The Log10GI50 (SK-MEL-28) was > -4.00 Molar, the Log10LC50 (SK-MEL-28) was > -4.00 Molar and the Log10TGI (SK-MEL-28) was > -4.00 Molar. The Log10GI50 (HOP-62) was -4.46 Molar, the Log10LC50 (HOP-62) was > -4.00 Molar and the Log10TGI (HOP-62) was > -4.00 Molar. The GI50 (HOP-62; Homo sapiens) was 34.7 µM, the Log10GI50 (HOP-62; […]) was -4.46 Molar and the Log10GI50 (MDA-MB-231/ATCC) was -4.63 Molar. The Log10LC50 (MDA-MB-231/ATCC) was > -4.00 Molar, the Log10TGI (MDA-MB-231/ATCC) was > -4.00 Molar and the GI50 (MDA-MB-231/ATCC; Homo sapiens) was 23.4 µM. For the same compound, the Log10GI50 (MDA-MB-231/ATCC; […]) was -4.63 Molar, the Log10GI50 (HL-60(TB)) was -4.68 Molar and the Log10LC50 (HL-60(TB)) was > -4.00 Molar. The Log10TGI (HL-60(TB)) was -4.02 Molar, the GI50 (HL-60(TB); Homo sapiens) was 20.9 µM and the Log10GI50 (HL-60(TB); […]) was -4.68 Molar. For the same compound, the Log10GI50 (SNB-19) was -4.53 Molar, the Log10LC50 (SNB-19) was > -4.00 Molar and the Log10TGI (SNB-19) was > -4.00 Molar. It also gave a GI50 (SNB-19; Homo sapiens) of 5.37 µM, a Log10GI50 (SNB-19; […]) of -5.27 Molar and a Log10GI50 (SK-MEL-2) of -4.69 Molar. The Log10LC50 (SK-MEL-2) was > -4.00 Molar, the Log10TGI (SK-MEL-2) was > -4.00 Molar and the GI50 (SK-MEL-2; Homo sapiens) was 20.4 µM. For the same compound, the Log10GI50 (SK-MEL-2; […]) was -4.69 Molar, the GI50 (M14) was > 20 µM and the GI50 (A549) was > 20 µM. For the same compound, the GI50 (PC3) was > 20 µM.
